Results reported in publication PMC8916850, “Preparation of Spice Extracts: Evaluation of Their Phytochemical, Antioxidant, Antityrosinase, and Anti-α-Glucosidase Properties Exploring Their Mechanism of Enzyme Inhibition with Antibrowning and Antidiabetic Studies In Vivo” (BioMed Research International, 2022).

Target: T1, Mushroom tyrosinase
T1 construct: gene PPO1
Assay: dopachrome formation, absorbance at […] nm
Type: biochemical
Conditions: L-DOPA 0.85 mM, phosphate buffer 20 mM pH 6.8, 37 °C; 10 min preincubation; methods name kojic acid as the standard, table and text name hydroquinone

SMILES: Oc1ccc(O)cc1 [hydroquinone]
- MeOH: 131.34 ± 9.82 µg/mL
